According to patent publication US4374149A, “α-{[(Arylalkyl)amino]alkyl}-4-hydroxy-3-(lower-alkylsul finyl)benzenemethanols” (Sterling Drug Inc., priority 1978, dated 1983):
Structures can show the parent of a compound that is named as a salt.

Tests used:
[1] = tested on: systolic blood pressure; assay: Antihypertensive activity, reduction in systolic blood pressure, single oral medication, unanesthetized spontaneous hypertensive rat; format: in vivo; conditions: P.O.; for Antihypertensive activity SH Rat AHD40 (single oral dose required to induce a 40 mm. average reduction in systolic blood pressure): unanesthetized SH rat
Method: Antihypertensive activity was determined on the basis of the observed reduction in systolic blood pressure measured according to the method of H. Kersten et al., J. Lab. and Clin. Med. 32, 1090 (1947) following a single oral medication in the unanesthetized spontaneous hypertensive rat described by Okamato et al., Japan Circulation J. 27, 282 (1963).
^a AHD40 = single oral dose required to induce a 40 mm. average

[2] = tested on: blood pressure; assay: Antihypertensive activity, sustained lowering of blood pressure, repeated oral medication, unanesthetized trained renal hypertensive dog; format: in vivo
Text: Antihypertensive activity was also judged on the basis of sustained reduction of blood pressure observed in the unanesthetized trained renal hypertensive dog following repeated oral medication according to the procedure described by Lape et al., Arch.
^b MED10 = minimum repeated oral daily dose required to effect a

[3] = tested on: β-adrenergic; assay: β-adrenergic blocking activity, inhibition of isoproterenol-elicited heart rate increase in pentobarbitalized dog; format: in vivo; conditions: i.v.; for Dog β-blockade AED50 (approximate intravenous dose for 50% inhibition of isoproterenol-elicited heart rate increase): pentobarbitalized dog
Method: The β-adrenergic blocking activity was determined in the pentobarbitalized dog as judged by the ability of the test compound to inhibit the elevation in heart rate elicited by a 0.5 mcg./kg. i.v. injection of isoproterenol.
^e AED50 = approximate intravenous dose required to cause 50%

[4] = tested on: isolated rabbit ear artery; assay: Vasodilator activity, perfusion pressure in isolated rabbit ear artery
Text: Vasodilator activity was judged on the basis of observed reduction in perfusion pressure in the hind limb vasculature of the anesthetized dog determined according to the procedure described by Jandhyala et al., European J. Pharm. 17, 357 (1972), and also on the basis of percent reduction in perfusion pressure as measured in the isolated rabbit ear artery according to the method described by De LaLande et al., Aust. J. Exp. Biol. Med. Sci. 43, 639 (1965).
^d Vasodilation is expressed as the percentage reduction in perfusion

SMILES | Antihypertensive activity SH Rat AHD40 (single oral dose required to induce a 40 mm. average reduction in systolic blood pressure) [1] | Dog β-blockade AED50 (approximate intravenous dose for 50% inhibition of isoproterenol-elicited heart rate increase) [3] | Actual reduction in blood pressure observed at the indicated dose ([1]; 50 mg./kg.) | also measured
COc1ccc(CCC(C)NCC(O)c2ccc(O)c([S+](C)[O-])c2)cc1 (single isomer, unassigned) [Example 13C, 4-hydroxy-α-<{[3-(4-methoxyphenyl)-1-methylpropyl]amino}methyl>-3-(methylsulfinyl)benzenemethanol hydrochloride] | – | – | – | Antihypertensive activity SH Rat AHD40 (single oral dose required to induce a 40 mm. average reduction in systolic blood pressure) ([1]; hydrochloride): 3 mg/kg; Actual percentage reduction in blood pressure observed at the indicated dose ([2]; tid., 0.5 mg./kg., hydrochloride): 17%; Renal Hypertensive Dog MED10 (minimum repeated oral daily dose for sustained lowering of blood pressure of 10% or greater) ([2]; tid., hydrochloride): < 0.5 mg/kg; Dog β-blockade AED50 (approximate intravenous dose for 50% inhibition of isoproterenol-elicited heart rate increase) ([3]; hydrochloride): 0.0125 mg/kg; Rabbit Ear Artery vasodilation (percentage reduction in perfusion pressure from control level) ([4]; 1 × 10^-4 M, 100 µM, hydrochloride): 50%
COc1ccc(CCC(C)NCC(O)c2ccc(OC(=O)c3ccccc3)c([S+](C)[O-])c2)cc1 (stereo not drawn) [Example 8, 4-hydroxy-α-<{[3-(4-methoxyphenyl)-1-methylpropyl]amino}methyl>-3-(methylsulfinyl)benzenemethanol 4-benzoate hemi-sulfate] | 9 mg/kg | – | – | –
COc1ccc(CC(C)NC(C)C(O)c2ccc(O)c([S+](C)[O-])c2)cc1 (stereo not drawn) [Example 15F, 4-hydroxy-α-<{1-[2-(4-methoxyphenyl)-1-methylethyl]amino}ethyl>-3-(methylsulfinyl)benzenemethanol acetate salt] | > 20.0 mg/kg | – | – | Actual reduction in blood pressure observed at the indicated dose ([1]; 20 mg./kg.): -25 mm. Hg
COc1ccc(CCC(C)NCC(=O)c2ccc(OC(=O)c3ccccc3)c([S+](C)[O-])c2)cc1Br (stereo not drawn) [Example 7E, 4'-hydroxy-2-{[3-(3-bromo-4-methoxyphenyl)-1-methylpropyl]-amino}-3'-(methylsulfinyl)acetophenone 4'-benzoate hydrochloride] | 30 mg/kg | > 1.0 mg/kg | – | Renal Hypertensive Dog MED10 (minimum repeated oral daily dose for sustained lowering of blood pressure of 10% or greater) ([2]; administered once per day): ~.10 mg/kg; Actual percentage inhibition of heart rate increase above control level observed at the indicated dose ([3]; 1.0 mg./kg.): 12%
CC(CCc1ccccc1)NCCc1ccc(O)c([S+](C)[O-])c1 (stereo not drawn) [Example 33C, 4-<2-{[1-methyl-3-phenylpropyl]amino}ethyl>-2-(methylsulfinyl)phenolhydrochloride] | > 50 mg/kg | 1.0 mg/kg | -28 mm. Hg | –
COc1ccc(CCCC(C)NCC(O)c2ccc(O)c([S+](C)[O-])c2)cc1 (stereo not drawn) [Example 21D, 4-hydroxy-α-<{[4-(4-methoxyphenyl)-1-methylbutyl]amino}methyl>-3-(methylsulfinyl)benzenemethanol acetate salt] | 40.0 mg/kg | – | – | Rabbit Ear Artery vasodilation (percentage reduction in perfusion pressure from control level) ([4]; 1 × 10^-3 M, 1000 µM): 50%
COc1ccc(CCC(C)NCCc2ccc(O)c([S+](C)[O-])c2)cc1 (single isomer, unassigned) [Example 29C, 4-<2-{[3-(4-methoxyphenyl)-1-methylpropyl]amino}ethyl>-2-(methylsulfinyl)phenol hydrochloride] | < 20 mg/kg | > 1.0 mg/kg | – | Actual reduction in blood pressure observed at the indicated dose ([1]; 20 mg./kg.): -54 mm. Hg; Renal Hypertensive Dog MED10 (minimum repeated oral daily dose for sustained lowering of blood pressure of 10% or greater) ([2]; administered once per day): > 40 mg/kg; Actual percentage inhibition of heart rate increase above control level observed at the indicated dose ([3]; 1.0 mg./kg.): 43%
COc1ccc(CCCC(C)(C)NCC(O)c2ccc(O)c([S+](C)[O-])c2)cc1 (stereo not drawn) [Example 22D, 4-hydroxy-α-<{[4-(4-methoxyphenyl)-1,1-dimethylbutyl]amino}methyl>-3-(methylsulfinyl)benzenemethanol] | > 50.0 mg/kg | – | -12 mm. Hg | –
COc1ccc(CCC(C)NCC(=O)c2ccc(OC(=O)c3ccccc3)c([S+](C)[O-])c2)cc1 (stereo not drawn) [Example 25, 4'-hydroxy-2-{[3-(4-methoxyphenyl)-1-methylpropyl]amino}-3'-(methylsulfinyl)acetophenone 4'-benzoate hydrochloride] | > 50 mg/kg | – | -12 mm. Hg | –
C[S+]([O-])c1cc(CCNC(C)(C)CCc2ccccc2)ccc1O.Cl (stereo not drawn) [Example 35C, 4-{2-[(1,1-dimethyl-3-phenylpropyl)amino]ethyl}-2-(methylsulfinyl)phenol hydrochloride] | > 50 mg/kg | 0.6 mg/kg | -20 mm. Hg | –
COc1ccc(CCC(C)NCC(O)c2ccc(O)c([S+](C)[O-])c2)cc1 (stereo not drawn) [Example 24C, hydrochloride] | – | – | -12 mm. Hg | Antihypertensive activity SH Rat AHD40 (single oral dose required to induce a 40 mm. average reduction in systolic blood pressure) ([1]; hydrochloride): > 50 mg/kg; Dog β-blockade AED50 (approximate intravenous dose for 50% inhibition of isoproterenol-elicited heart rate increase) ([3]; hydrochloride): ca. 0.50 mg./kg.
COc1ccc(CCC(C)NCC(O)c2ccc(O)c([S+](C)[O-])c2)cc1 (stereo not drawn) [Example 5G, 4-hydroxy-α-<{[3-(4-methoxyphenyl)-1-methylpropyl]amino}methyl>-3-(methylsulfinyl)benzenemethanol] | – | – | – | Rabbit Ear Artery vasodilation (percentage reduction in perfusion pressure from control level) ([4]; 1 × 10^-4 M, 100 µM): 71%
COc1ccc(CCC(C)NCCc2ccc(O)c([S+](C)[O-])c2)cc1 (stereo not drawn) [Example 37C, 4-<2-{[3-(4-methoxyphenyl)-1-methylpropyl]amino}ethyl>-2-(methylsulfinyl)phenol hydrochloride] | > 150 mg/kg | – | – | Actual reduction in blood pressure observed at the indicated dose ([1]; 150 mg./kg., hydrochloride): -21 mm. Hg
COc1ccc(CCC(C)NCC(O)c2ccc(O)c([S+](C)[O-])c2)cc1 (stereo not drawn) [Example 5F, 4-hydroxy-α-<{[3-(4-methoxyphenyl)-1-methylpropyl]amino}methyl>-3-(methylsulfinyl)benzenemethanol] | 4.0 mg/kg | < 0.25 mg/kg | – | Actual percentage inhibition of heart rate increase above control level observed at the indicated dose ([3]; 0.25 mg./kg.): 70%; Rabbit Ear Artery vasodilation (percentage reduction in perfusion pressure from control level) ([4]; 5 × 10^-5 M, 50 µM): 50%
CCOCCOc1ccc(C(O)CNC(C)CCc2ccc(OC)cc2)cc1[S+](C)[O-] (stereo not drawn) [Example 32E, 4-[2-(ethoxy)ethoxy]-α-<{[3-(4-methoxyphenyl)-1-methylpropyl]amino}methyl>-3-(methylsulfinyl)benzenemethanol hydrochloride] | > 150 mg/kg | – | – | –
COc1cc(CCNCC(O)c2ccc(O)c([S+](C)[O-])c2)cc(OC)c1OC (stereo not drawn) [Example 28C, 4-hydroxy-3-(methylsulfinyl)-α-<{[2-(3,4,5-trimethoxyphenyl)ethyl]-amino}methyl>benzenemethanol hydrochloride] | > 50 mg/kg | – | -15 mm. Hg | –
CC(CCc1ccc2c(c1)OCO2)NCC(O)c1ccc(O)c([S+](C)[O-])c1 (stereo not drawn) [Example 31C, 4-hydroxy-α-<{[3-(3,4-methylenedioxyphenyl)-1-methylpropyl]amino}methyl>-3-(methylsulfinyl)benzenemethanol hydrochloride] | < 50 mg/kg | < 0.025 mg/kg | -54 mm. Hg | Actual percentage inhibition of heart rate increase above control level observed at the indicated dose ([3]; 0.025 mg./kg.): 60%
CC(CCc1ccc(O)cc1)NCC(O)c1ccc(O)c([S+](C)[O-])c1 (single isomer, unassigned) [Example 23C, 4-hydroxy-α-<{[4-(4-hydroxyphenyl)-1-methylpropyl]amino}methyl>-3-(methylsulfinyl)benzenemethanol cyclohexylsulfamate salt] | 40.0 mg/kg | < 0.025 mg/kg | – | Actual percentage inhibition of heart rate increase above control level observed at the indicated dose ([3]; 0.025 mg./kg.): 80%
COc1ccc(CCC(C)NCCc2ccc(O)c([S+](C)[O-])c2)cc1 (stereo not drawn) [Example 36C, 4-<2-{[3-(4-methoxyphenyl)-1-methylpropyl]amino}ethyl>-2-(methylsulfinyl)phenol hydrochloride] | > 150 mg/kg | – | – | Actual reduction in blood pressure observed at the indicated dose ([1]; 150 mg./kg., hydrochloride): -28 mm. Hg
COc1ccc(CCNCC(O)c2ccc(O)c([S+](C)[O-])c2)cc1OC (stereo not drawn) [Example 27C, α-<{[2-(3,4-dimethoxyphenyl)ethyl]amino}-methyl>-4-hydroxy-3-(methylsulfinyl)benzenemethanol hydrochloride] | > 50 mg/kg | ca. 0.10 mg./kg. | -26 mm. Hg | –
